Reference: patent publication US20110207800A1, “HIV-Dependent expression constructs and uses therefore” (priority 2008, published 2011)

Experiments:
healthy macrophages = format: cell-based, human
[1] = tested on: HIV-1-positive J1.1 cell line; format: cell-based
AnlO = format: cell-based, Bacillus anthracis
α-hemolysin = α-hemolysin (Staphylococcus aureus, UniProt P09616); format: cell-based
α-hemolysin, sequence (P09616 27-319 limits assumed): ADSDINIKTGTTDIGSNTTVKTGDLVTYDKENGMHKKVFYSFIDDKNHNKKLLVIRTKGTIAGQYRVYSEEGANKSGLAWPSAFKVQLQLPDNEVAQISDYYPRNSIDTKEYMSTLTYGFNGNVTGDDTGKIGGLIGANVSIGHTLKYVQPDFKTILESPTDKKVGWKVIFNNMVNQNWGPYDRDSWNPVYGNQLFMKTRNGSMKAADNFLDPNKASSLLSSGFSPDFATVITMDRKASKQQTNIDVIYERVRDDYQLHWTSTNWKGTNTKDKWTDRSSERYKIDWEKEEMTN

COc1ccc(C[C@H](N)C(=O)N[C@H]2[C@@H](O)[C@H](n3cnc4c(N(C)C)ncnc43)O[C@@H]2CO)cc1 [puromycin]
cytolysis, share of the cells (healthy macrophages): 25%
time to detection of cytolysis (healthy macrophages; 500 ng/ml): ≤ 2 days

6-boc orthinine amide-β-cyclodextrin [6-BOCD]
infectivity of virus generated in the presence of the compound [1]: no difference in infectivity
change of GFP-positive cell population (inhibition of cytolysis by anlO) (AnlO): doubling
number of GFP positive cells (α-hemolysin): did not increase
